From US8362052B2, “Isoindolin-1-one derivative” (MSD K.K., priority 2009, dated 2013)

Molecular target: T1, human GPR120 (Homo sapiens, UniProt Q5NUL3)
T1 construct: expressed in transfected cells
T1 sequence (Q5NUL3 1-361): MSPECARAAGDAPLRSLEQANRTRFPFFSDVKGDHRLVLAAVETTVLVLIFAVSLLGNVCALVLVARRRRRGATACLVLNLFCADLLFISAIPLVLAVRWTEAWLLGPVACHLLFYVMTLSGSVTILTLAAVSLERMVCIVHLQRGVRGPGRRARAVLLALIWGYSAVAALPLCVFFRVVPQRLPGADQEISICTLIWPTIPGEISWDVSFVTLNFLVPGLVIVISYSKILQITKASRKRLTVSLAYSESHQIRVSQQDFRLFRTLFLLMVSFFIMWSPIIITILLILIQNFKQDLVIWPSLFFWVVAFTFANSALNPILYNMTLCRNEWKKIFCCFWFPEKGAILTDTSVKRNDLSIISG
Test: Measurement of intracellular calcium concentration (FLIPR), GPR120 agonist action
Type: cell-based
Details: human GPR120 expression CHO cells, Fluo-4 AM
Text: Primers were synthesized in the domains on the opposite sides of the base sequences of the ORFs of the known GPCR and GPR120 in GenBank Accession NOs. NM 181745 (human) and NM 181748 (mouse), and the genes were cloned by RT-PCR. The base sequences of the primers used are described below. The restriction enzymes, BamHI and EcoRI, recognition sites were introduced for subcloning, respectively.
Using Lipofectamine 2000 (Invitrogen), cDNA of GPR120 receptor was transfected into CHO/NFAT-BLA cells, and drug-resistant cells were isolated to obtain GPR120 stable expression strains. The GPR120-expressed CHO cells were cultured in DMEM/F12 medium containing 10% fetal bovine serum, 100 units/ml penicillin, 0.1 mg/ml streptomycin sulfate, 250 μg/ml Zeocin, 500 μg/mL Geneticin and 15 mM HEPES.
On the day before the measurement day, 4 μM Fluo-4 AM (fluorescence calcium indicator reagent) was incubated to be introduced into the human GPR120 expression CHO cells plated at 20000 cells per well of a 96-well black plate (ViewPlate; Packard) in the presence of 2.5 mM probenecid in a CO2 incubator for 1 hour. […] Variations in the intracellular calcium concentration were measured by Fluorescence Imaging Plate Reader (FLIPR; Molecular Devices) to examine the agonist action, and EC50 values were calculated.

Row | EC50 | SMILES
1 | 180 nM | O=S1(=O)c2ccccc2CN1c1cc(F)cc(Oc2cccnc2)c1 [Example 2, 2-[3-fluoro-5-(pyridin-3-yloxy)phenyl]-2,3-dihydro-1,2-benzisothiazol-1,1-dioxide]
2 | 850 nM | O=C1c2ccccc2CN1c1cc(F)cc(Oc2cccnc2)c1 [Example 1, 2-[3-fluoro-5-(pyridin-3-yloxy)phenyl]isoindolin-1-one]
